Holding throughout (assay type): cell-based
In assay [1] the target is T1, EGFR exon 20 ASV Ins V769_D770 (Ba/F3 cells) (Homo sapiens, UniProt P00533, INS769ASV).
T1 construct: expressed in transfected cells; host or cells: Ba/F3 (murine pro-B cells), retroviral transduction, puromycin selection, IL3-independent pool
The experiment in a line: Inhibitor activity on EGFR-dependent cell growth (CellTiter-Glo, 72 h), Ba/F3 EGFR exon 20 ASV Ins. The note with it: read-out: BaF3 ASV IC50. Summed up: (§1)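 IC50s derive from a sigmoidal dose–response fit of CellTiter-Glo signal. The signal was normalised between […]-treated cells and cell-free medium. Ba/F3 mutant-EGFR cells, seeded at 400–800/well depending on the line, had 72 h of exposure to a 10-point, 3-fold compound series.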
On the technique in general: Cellular ATP, detected with luciferase, serves as a proxy for viable cell number.

The target of assay [2] is T2, EGFR exon 20 NPG Ins D770_N771 (Ba/F3 cells) (Homo sapiens, UniProt P00533, INS770NPG).
T2 construct: expressed in transfected cells; host or cells: Ba/F3 (murine pro-B cells), retroviral transduction, puromycin selection, IL3-independent pool
The assay can be described thus: Inhibitor activity on EGFR-dependent cell growth (CellTiter-Glo, 72 h), Ba/F3 EGFR exon 20 NPG Ins. As to conditions: read-out: BaF3 NPG IC50. From the text: Example A. Inhibitor Activity on EGFR-Dependent Cell Growth
Cell lines are generated by transducing Ba/F3 cells with retroviruses containing vectors with EGFR WT, EGFR L858R, EGFR exon 19del, EGFR L858R/C797S, EGFR exon 20 NPG Ins D770_N771, EGFR exon 20 ASV Ins V769_D770, EGFR exon 20 SVD Ins D770_N771, or EGFR exon 20 FQEA Ins A763_V764 genes and a puromycin selection marker. Transduced cells are selected with puromycin for 7 days and are then be transferred into culture media without Interleukin 3 (IL3). EGFR WT cells are maintained with supplemental EGF. Surviving cells are confirmed to express EGFR by Western blot and maintained as a pool. The IC50 date were included in Table 6 and Table 7.
1.1 Cells are harvested from flask into cell culture medium and the cell number counted.
1.2 Cells are diluted with culture medium to the desired density and 40 μL of cell suspension is added into each well of 384-well cell culture plate and the seeding density is 800 (FQEA, exon 19del), 600 (WT, NPG, L858R/C797S), or 400 (ASV, SVD, L858R) cells/well.
2 Compound Preparation and Treatment
2.1 Test compounds are dissolved to 10 mM in a DMSO stock solution. 45 μL of stock solution is transferred to a 384 polypropylene plate (pp-plate). Perform 3-fold, 10-point dilution via transferring 15 μL compound into 30 μL DMSO using a TECAN (EVO200) liquid handler.
2.2 Spin plates at room temperature at 1,000 RPM for 1 minute.
2.3 Transfer 120 nL of diluted compound from compound source plate into the cell plate.
2.4 After compound treatment for 72 hours, perform CTG detection for compound treatment plates as described in “Detection” section.
3.1 Plates are removed from incubators and equilibrated at room temperature for 15 minutes.
3.2 Thaw the CellTiter Glo reagents and allow to equilibrate to room temperature before the experiment.
3.3 Add 40 μL of CellTiter-Glo reagent into each well (at 1:1 to culture medium). Then place the plates at room temperature for 30 min followed by reading on EnVision.
4.1 Inhibition activity is calculated following the formula below:
% Inhibition=100×(LumHC−LumSample)/(LumHC−LumLC) • where HC is obtained from cells treated with 0.1% DMSO only; and LC is obtained from culture medium only.
4.2 2. Calculate the IC50 by fitting the Curve using Xlfit (v5.3.1.3), equation 201.
Y=Bottom+(Top−Bottom)/(1+10^((Log IC50−X)*HillSlope))

For assay [3], the target named is T3, EGFR exon 20 SVD Ins D770_N771 (Ba/F3 cells) (Homo sapiens, UniProt P00533, INS770SVD).
T3 construct: expressed in transfected cells; host or cells: Ba/F3 (murine pro-B cells), retroviral transduction, puromycin selection, IL3-independent pool
The experiment in a line: Inhibitor activity on EGFR-dependent cell growth (CellTiter-Glo, 72 h), Ba/F3 EGFR exon 20 SVD Ins. The note with it: read-out: BaF3 SVD IC50. Summed up: as §1

The target of the next assay is T4, EGFR WT (Ba/F3 cells) (Homo sapiens, UniProt P00533).
T4 construct: expressed in transfected cells; host or cells: Ba/F3 (murine pro-B cells), retroviral transduction, puromycin selection, maintained with EGF
The assay can be described thus: Inhibitor activity on EGFR-dependent cell growth (CellTiter-Glo, 72 h), Ba/F3 EGFR WT. The note with it: read-out: BaF3 WT IC50. Summed up: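 This growth assay used Ba/F3 cells that depend on wild-type EGFR and are kept in EGF without IL3. Compounds were made up as 10 mM DMSO stocks and diluted 3-fold over 10 points. 120 nL went onto 600 cells/well. After 72 hours, 40 μL CellTiter-Glo was added and luminescence read on EnVision after 30 min.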

T3 sequence (P00533 with tags, fused parts or gaps INS770SVD): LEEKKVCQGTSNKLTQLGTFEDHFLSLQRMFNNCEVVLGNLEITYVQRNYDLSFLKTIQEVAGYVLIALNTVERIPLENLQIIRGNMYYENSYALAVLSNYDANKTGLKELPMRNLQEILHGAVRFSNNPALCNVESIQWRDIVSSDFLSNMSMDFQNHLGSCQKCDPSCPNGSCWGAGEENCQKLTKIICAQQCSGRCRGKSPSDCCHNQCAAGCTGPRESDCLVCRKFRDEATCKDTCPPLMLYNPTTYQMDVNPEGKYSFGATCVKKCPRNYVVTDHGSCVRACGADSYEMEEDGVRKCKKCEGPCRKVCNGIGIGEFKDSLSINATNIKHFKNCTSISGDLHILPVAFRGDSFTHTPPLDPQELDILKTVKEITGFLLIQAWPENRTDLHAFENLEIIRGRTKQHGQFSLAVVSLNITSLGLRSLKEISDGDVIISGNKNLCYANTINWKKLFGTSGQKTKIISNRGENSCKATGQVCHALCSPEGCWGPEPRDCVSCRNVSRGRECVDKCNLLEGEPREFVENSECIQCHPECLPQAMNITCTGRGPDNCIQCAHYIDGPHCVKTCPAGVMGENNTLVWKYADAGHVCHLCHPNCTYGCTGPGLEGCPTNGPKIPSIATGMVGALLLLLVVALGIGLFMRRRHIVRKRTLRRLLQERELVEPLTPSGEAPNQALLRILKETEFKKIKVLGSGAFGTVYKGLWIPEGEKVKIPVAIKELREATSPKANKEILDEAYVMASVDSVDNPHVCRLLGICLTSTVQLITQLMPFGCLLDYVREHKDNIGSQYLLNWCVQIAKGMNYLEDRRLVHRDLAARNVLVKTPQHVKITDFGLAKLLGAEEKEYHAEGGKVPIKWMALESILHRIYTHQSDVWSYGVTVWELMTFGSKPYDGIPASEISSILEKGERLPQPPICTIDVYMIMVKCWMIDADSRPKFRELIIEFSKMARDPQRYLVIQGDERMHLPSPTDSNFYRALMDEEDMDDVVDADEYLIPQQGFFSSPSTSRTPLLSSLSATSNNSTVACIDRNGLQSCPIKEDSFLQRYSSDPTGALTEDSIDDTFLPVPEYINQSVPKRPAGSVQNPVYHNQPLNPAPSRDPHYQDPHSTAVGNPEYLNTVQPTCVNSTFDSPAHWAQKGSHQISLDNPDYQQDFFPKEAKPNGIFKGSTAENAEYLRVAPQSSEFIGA
T1 sequence (P00533 with tags, fused parts or gaps INS769ASV): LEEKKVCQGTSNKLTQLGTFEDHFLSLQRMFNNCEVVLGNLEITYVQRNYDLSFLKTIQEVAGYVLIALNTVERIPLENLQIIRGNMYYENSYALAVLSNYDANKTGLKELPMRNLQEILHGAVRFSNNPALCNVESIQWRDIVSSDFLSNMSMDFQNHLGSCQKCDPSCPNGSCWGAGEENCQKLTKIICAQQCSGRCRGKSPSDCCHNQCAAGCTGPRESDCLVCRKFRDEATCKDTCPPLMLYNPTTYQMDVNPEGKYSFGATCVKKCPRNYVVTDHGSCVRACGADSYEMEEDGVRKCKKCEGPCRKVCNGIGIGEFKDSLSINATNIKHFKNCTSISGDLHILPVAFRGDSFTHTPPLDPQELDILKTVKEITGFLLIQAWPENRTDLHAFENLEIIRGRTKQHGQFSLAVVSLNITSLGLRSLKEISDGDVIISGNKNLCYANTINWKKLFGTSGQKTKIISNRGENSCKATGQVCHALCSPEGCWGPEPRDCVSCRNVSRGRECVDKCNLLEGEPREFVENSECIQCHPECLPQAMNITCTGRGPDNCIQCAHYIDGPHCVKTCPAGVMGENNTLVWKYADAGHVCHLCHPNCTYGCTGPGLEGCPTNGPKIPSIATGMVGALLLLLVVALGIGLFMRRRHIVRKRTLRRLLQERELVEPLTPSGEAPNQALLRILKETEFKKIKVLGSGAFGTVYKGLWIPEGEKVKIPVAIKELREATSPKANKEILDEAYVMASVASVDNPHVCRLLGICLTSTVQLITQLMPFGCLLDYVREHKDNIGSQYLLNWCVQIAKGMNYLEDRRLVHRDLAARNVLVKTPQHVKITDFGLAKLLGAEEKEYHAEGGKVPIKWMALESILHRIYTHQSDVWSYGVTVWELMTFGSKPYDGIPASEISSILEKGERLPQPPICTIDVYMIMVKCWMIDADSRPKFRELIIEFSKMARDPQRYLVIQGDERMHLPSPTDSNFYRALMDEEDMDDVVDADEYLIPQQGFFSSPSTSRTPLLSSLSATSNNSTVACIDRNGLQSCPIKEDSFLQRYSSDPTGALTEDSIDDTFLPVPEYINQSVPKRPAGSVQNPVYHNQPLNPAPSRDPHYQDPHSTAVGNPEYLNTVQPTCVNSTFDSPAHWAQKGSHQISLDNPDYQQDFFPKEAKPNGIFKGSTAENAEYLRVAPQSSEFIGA
T4 sequence (P00533 25-1210): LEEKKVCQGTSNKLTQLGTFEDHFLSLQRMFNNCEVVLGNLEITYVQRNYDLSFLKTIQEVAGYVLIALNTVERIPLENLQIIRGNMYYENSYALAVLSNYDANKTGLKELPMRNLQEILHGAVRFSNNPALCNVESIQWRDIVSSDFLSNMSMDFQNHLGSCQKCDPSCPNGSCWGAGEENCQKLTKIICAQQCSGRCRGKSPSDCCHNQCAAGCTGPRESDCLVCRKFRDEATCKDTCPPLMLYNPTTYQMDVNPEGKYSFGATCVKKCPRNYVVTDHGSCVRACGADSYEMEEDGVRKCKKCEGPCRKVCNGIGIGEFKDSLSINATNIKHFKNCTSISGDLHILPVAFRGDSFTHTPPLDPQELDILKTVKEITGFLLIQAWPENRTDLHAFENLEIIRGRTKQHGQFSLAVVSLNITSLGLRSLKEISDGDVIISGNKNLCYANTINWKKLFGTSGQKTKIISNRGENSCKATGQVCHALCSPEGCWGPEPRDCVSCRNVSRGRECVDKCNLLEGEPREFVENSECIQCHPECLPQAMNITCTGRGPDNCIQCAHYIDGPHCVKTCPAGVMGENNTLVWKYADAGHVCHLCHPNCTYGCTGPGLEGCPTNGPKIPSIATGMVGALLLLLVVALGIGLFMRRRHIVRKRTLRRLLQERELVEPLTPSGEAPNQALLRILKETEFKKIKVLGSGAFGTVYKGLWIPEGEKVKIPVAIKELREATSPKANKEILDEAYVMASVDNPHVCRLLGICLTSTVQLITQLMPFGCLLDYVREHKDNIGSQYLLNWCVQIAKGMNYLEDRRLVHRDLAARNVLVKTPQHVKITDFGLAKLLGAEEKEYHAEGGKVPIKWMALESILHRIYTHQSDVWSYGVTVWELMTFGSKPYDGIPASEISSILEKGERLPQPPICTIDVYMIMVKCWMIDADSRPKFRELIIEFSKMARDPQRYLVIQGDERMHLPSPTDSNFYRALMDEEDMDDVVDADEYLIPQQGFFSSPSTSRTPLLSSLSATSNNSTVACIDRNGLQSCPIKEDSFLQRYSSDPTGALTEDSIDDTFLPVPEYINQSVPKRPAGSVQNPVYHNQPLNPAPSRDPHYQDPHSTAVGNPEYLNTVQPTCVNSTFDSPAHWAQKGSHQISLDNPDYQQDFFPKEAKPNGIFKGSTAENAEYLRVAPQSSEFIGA
T2 sequence (P00533 with tags, fused parts or gaps INS770NPG): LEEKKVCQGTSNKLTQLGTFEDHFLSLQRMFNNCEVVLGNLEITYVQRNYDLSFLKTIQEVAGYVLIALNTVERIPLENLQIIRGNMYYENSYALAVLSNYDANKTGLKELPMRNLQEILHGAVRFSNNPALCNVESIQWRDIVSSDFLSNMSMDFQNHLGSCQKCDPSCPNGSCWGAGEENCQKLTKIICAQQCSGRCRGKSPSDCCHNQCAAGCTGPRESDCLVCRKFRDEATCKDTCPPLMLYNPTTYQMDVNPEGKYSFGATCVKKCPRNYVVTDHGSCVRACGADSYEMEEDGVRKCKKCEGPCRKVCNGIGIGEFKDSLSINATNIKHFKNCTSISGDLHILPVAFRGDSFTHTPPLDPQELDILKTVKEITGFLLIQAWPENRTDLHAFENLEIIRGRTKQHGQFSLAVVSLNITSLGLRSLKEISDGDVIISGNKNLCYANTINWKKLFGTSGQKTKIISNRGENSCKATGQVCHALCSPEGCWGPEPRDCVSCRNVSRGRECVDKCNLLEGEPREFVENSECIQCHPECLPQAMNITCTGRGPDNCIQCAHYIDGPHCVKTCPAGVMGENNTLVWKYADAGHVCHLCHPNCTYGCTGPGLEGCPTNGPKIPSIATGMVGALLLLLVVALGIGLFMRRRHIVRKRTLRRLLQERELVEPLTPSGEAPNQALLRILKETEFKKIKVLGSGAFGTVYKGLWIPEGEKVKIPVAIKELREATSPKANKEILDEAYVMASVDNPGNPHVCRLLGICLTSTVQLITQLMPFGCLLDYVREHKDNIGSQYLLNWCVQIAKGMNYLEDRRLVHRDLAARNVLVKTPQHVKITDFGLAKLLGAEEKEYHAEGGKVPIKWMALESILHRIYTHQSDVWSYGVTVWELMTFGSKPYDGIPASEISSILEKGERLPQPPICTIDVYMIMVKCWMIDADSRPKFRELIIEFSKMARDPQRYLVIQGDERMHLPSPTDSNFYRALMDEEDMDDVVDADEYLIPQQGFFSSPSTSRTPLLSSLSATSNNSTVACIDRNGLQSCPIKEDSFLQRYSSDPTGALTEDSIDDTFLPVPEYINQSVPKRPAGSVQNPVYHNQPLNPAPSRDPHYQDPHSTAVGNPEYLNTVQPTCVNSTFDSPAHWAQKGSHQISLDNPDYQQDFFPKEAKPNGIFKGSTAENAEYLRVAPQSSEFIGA

As usually defined, the IC50 is the concentration at which inhibition is half-maximal. With `C=CC(=O)N1CCC(Oc2nc3c(-c4[nH]c5c(c4Nc4cccc(F)c4OC)C(=O)NCC5)ccnc3cc2OC)CC1` [Compound 554, 3-[(3-fluoro-2-methoxyphenyl)amino]-2-(7-methoxy-6-{[1-(prop-2-enoyl)piperidin-4-yl]oxy}-1,5-naphthyridin-4-yl)-1H,5H,6H,7H-pyrrolo[3,2-c]pyridin-4-one], the IC50 (in assay [1]; in assay [2]; in assay [3]; on EGFR WT (Ba/F3 cells)) was < 100 nM each time.
As for `CC#CC(=O)N1CCC2(CC1)CNC(=O)c1c2[nH]c(-c2ccncc2F)c1Nc1cccc(Cl)c1OC` [Compound 555, 1-(but-2-ynoyl)-3′-[(3-chloro-2-methoxyphenyl)amino]-2′-(3-fluoropyridin-4-yl)-5′,6′-dihydro-1′H-spiro[piperidine-4,7′-pyrrolo[3,2-c]pyridin]-4′-one], the IC50 (in assay [1]; in assay [2]; in assay [3]; on EGFR WT (Ba/F3 cells)) was > 1000 nM in each case.
On to `C=CC(=O)N1CCC2(CC1)CNC(=O)c1c2[nH]c(-c2ccnc(N)n2)c1Nc1cccc(Cl)c1OC` [Compound 556, 2′-(2-aminopyrimidin-4-yl)-3′-[(3-chloro-2-methoxyphenyl)amino]-1-(prop-2-enoyl)-5′,6′-dihydro-1′H-spiro[piperidine-4,7′-pyrrolo[3,2-c]pyridin]-4′-one], for which the IC50 is < 100 nM in assay [1], < 100 nM in assay [2], < 100 nM in assay [3] and 100 to 1000 nM at EGFR WT (Ba/F3 cells).
Consider `C=CC(=O)N1CCC2(CC1)CNC(=O)c1c2[nH]c(-c2ccncc2F)c1Nc1cccc(Cl)c1CC` [Compound 558, 3′-[(3-chloro-2-ethylphenyl)amino]-2′-(3-fluoropyridin-4-yl)-1-(prop-2-enoyl)-5′,6′-dihydro-1′H-spiro[piperidine-4,7′-pyrrolo[3,2-c]pyridin]-4′-one], for which the IC50 (in assay [1]; in assay [2]; in assay [3]; at EGFR WT (Ba/F3 cells)) was < 100 nM each time.
As for `C=CC(=O)N1CCC2(CC1)CNC(=O)c1c2[nH]c(-c2ccncc2F)c1Nc1cccc(F)c1SC` [Compound 560, 3′-{[3-fluoro-2-(methylsulfanyl)phenyl]amino}-2′-(3-fluoropyridin-4-yl)-1-(prop-2-enoyl)-5′,6′-dihydro-1′H-spiro[piperidine-4,7′-pyrrolo[3,2-c]pyridin]-4′-one], the IC50 was < 100 nM in assay [1], < 100 nM in assay [2], < 100 nM in assay [3] and 100 to 1000 nM at EGFR WT (Ba/F3 cells).
As for `C=CC(=O)N1CCC2(CC1)CNC(=O)c1c2[nH]c(-c2ccncc2F)c1Nc1cccc(Br)c1OC` [Compound 561, 3′-[(3-bromo-2-methoxyphenyl)amino]-2′-(3-fluoropyridin-4-yl)-1-(prop-2-enoyl)-5′,6′-dihydro-1′H-spiro[piperidine-4,7′-pyrrolo[3,2-c]pyridin]-4′-one], the IC50 is < 100 nM in assay [1], < 100 nM in assay [2], < 100 nM in assay [3] and 100 to 1000 nM at EGFR WT (Ba/F3 cells).
Regarding `COc1c(F)cccc1Nc1c(-c2ccnc3cnc(N4CCN(C(=O)/C=C/CN(C)C)CC4)nc23)[nH]c2c1C(=O)NCC2` [Compound 577, 2-(2-{4-[(2E)-4-(dimethylamino)but-2-enoyl]piperazin-1-yl}pyrido[3,2-d]pyrimidin-8-yl)-3-[(3-fluoro-2-methoxyphenyl)amino]-1H,5H,6H,7H-pyrrolo[3,2-c]pyridin-4-one], the IC50 in assay [1] was < 100 nM; in assay [2], < 100 nM; in assay [3], < 100 nM; on EGFR WT (Ba/F3 cells) it was 100 to 1000 nM.
On to `C=CC(=O)N1CCC2(CC1)CNC(=O)c1c2[nH]c(-c2ccncc2F)c1Nc1cccc(F)c1F` [Compound 585, 3′-[(2,3-difluorophenyl)amino]-2′-(3-fluoropyridin-4-yl)-1-(prop-2-enoyl)-5′,6′-dihydro-1′H-spiro[piperidine-4,7′-pyrrolo[3,2-c]pyridin]-4′-one], for which the IC50 in assay [1] was < 100 nM; in assay [2], < 100 nM; in assay [3] it was < 100 nM; on EGFR WT (Ba/F3 cells) it was 100 to 1000 nM.

The values above are taken from patent US20240101576A1, “HETEROCYCLIC INHIBITORS OF EGFR AND/OR HER2, FOR USE IN THE TREATMENT OF CANCER” (Scorpion Therapeutics, Inc., priority 2020, published 2024).
